Data reported in paper PMC11356571, “The Comparative Metabolism of a Novel Hepatocellular Carcinoma Therapeutic Agent, 2,3-Diamino-N-(4-(benzo[d]thiazol-2-yl)phenyl)propanamide, in Human and Animal Hepatocytes” (Metabolites, 2024).

How the values were obtained:
[1] = target: T1, CES2 (Homo sapiens, UniProt O00748); assay: Incubation with human recombinant CES2; assay type: in vitro ADME; settings: CES2, 60 min at 37 °C; ETN101 10 μM or M1 1 μM
T1 construct: purchased Corning Life Sciences (Woburn, MA, USA)
T1 sequence (O00748 27-559): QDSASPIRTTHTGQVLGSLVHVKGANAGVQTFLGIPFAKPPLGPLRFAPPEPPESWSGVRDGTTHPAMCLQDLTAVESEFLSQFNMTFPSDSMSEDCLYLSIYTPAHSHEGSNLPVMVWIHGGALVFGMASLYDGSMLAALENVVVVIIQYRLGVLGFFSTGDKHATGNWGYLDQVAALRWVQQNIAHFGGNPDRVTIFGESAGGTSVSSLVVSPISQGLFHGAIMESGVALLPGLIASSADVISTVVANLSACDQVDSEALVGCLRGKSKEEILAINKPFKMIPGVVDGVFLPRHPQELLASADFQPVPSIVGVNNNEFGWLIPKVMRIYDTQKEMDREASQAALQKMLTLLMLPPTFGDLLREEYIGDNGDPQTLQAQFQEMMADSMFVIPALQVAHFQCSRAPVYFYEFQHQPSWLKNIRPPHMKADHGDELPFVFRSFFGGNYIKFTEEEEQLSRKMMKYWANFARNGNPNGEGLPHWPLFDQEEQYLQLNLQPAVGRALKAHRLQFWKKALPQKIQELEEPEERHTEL
Experimental: To screen for CES enzymes responsible for the hydrolysis of ETN101 or M1, 50 μL of reaction mixtures containing human cDNA-expressed CES enzymes (CES1b, CES1c, and CES2) at the concentration of 1 mg/mL, 10 μM ETN101, or 1 μM M1 in 0.1 M potassium phosphate buffer were incubated at 37 °C for 0 min or 60 min in triplicate. The reactions were quenched by adding 50 μL of ice-cold acetonitrile containing the internal standard (camptothecin, 10 μg/mL). Following centrifugation at 13,000 rpm for 5 min, a 2 μL aliquot of the supernatant was injected into the LC-MS/MS system. The reliability of the analysis was confirmed by incorporating three different levels of quality control samples at the beginning and end of each analytical batch.
(§1) For enzyme characterization, an Agilent 6460 triple quadrupole mass spectrometer coupled with a 1260 HPLC system (Agilent Technologies, Santa Clara, CA, USA) and a Kinetex Halo® C18 column (2.7 μm, 2.1 × 50 mm, Advanced Material Technology, Wilmington, DE, USA) were used for chromatographic separation. The mobile phases comprised 0.1% (v/v) formic acid in water (mobile phase A) and 0.1% formic acid (v/v) in acetonitrile (mobile phase B). […] ETN101, M1, and M2 were detected via MRM using ESI in the positive mode. […]

[2] = target: T2, human NAT1 (Homo sapiens, UniProt P18440); assay: Incubation with cDNA-expressed human NAT1; assay type: in vitro ADME; settings: cDNA-expressed human NAT1, 60 min at 37 °C, concentration of 0.1 μM
T2 construct: purchased Corning Life Sciences (Woburn, MA, USA)
T2 sequence (P18440 1-290): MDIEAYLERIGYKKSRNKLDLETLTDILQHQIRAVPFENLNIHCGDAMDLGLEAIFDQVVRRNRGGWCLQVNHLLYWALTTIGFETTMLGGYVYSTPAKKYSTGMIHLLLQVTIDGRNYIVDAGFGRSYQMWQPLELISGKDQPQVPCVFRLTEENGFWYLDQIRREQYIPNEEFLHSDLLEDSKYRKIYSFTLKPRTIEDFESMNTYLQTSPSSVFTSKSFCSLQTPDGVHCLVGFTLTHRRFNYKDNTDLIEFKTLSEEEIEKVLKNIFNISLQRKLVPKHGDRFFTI
Experimental: Additionally, M1 was incubated with cDNA-expressed human NAT1 isozyme to confirm the involvement of the NAT1 isozyme in the N-acetylation of M1. This was carried out by monitoring the remaining percentage of M1 and the formation of M2 in a concentration-dependent manner. A 225 μL reaction mixture containing cDNA-expressed human NAT1 at 1 μg/mL, and 1 μM M1 (final concentration: 0.1 and 1 μM) in 0.05 M potassium phosphate buffer was pre-warmed for 5 min. The reaction was initiated by adding 25 μL of acetyl-CoA regenerating system to the incubates. The acetyl-CoA regenerating system consisted of 0.1 mM acetyl-CoA, 4.5 mM acetyl-DL-carnitine, and 2.0 unit/mL carnitine acetyltransferase as final concentrations. The samples were incubated in triplicate for 0 min or 60 min at 37 °C. The reactions were stopped by adding 250 μL of ice-cold acetonitrile containing the IS (camptothecin, 500 ng/mL). Samples were centrifuged at 13,000 rpm for 5 min at 4 °C. An aliquot of 2 μL supernatant was injected in LC-MS/MS system.
as §1, with “separation.” for “separation. The mobile phases comprised 0.1% (v/v) formic acid in water (mobile phase A) and 0.1% formic acid (v/v) in acetonitrile (mobile phase B).”

SMILES	Percentage remaining [1] [%]	Percentage remaining of M1 [2] [%]
NCC(N)C(=O)Nc1ccc(-c2nc3ccccc3s2)cc1 (stereo not drawn) [ETN101, 2,3-diamino-N-(4-(benzo[d]thiazol-2-yl)phenyl)propanamide]	113.4	–
Nc1ccc(-c2nc3ccccc3s2)cc1 [M1, 2-(4-aminophenyl)benzothiazole]	91.7	90.3
